{"source": "patent US10160759B2", "about": "“Hydroxyethyl sulfonate of cyclin-dependent protein kinase inhibitor, crystalline form thereof and preparation method therefor” (Jiangsu Hengrui Medicine Co., Ltd., priority 2015, dated 2018)", "origin": "cited, not measured here", "conditions": "patients, clinical trial NCT00721409"}
{"compound": "N#Cc1ccc(C(c2ccc(C#N)cc2)n2cncn2)cc1", "note": "[letrozole]", "values": [{"measurement": "progression-free survival (PFS)", "value": 7.5, "unit": "months"}]}
